Assays:
CL-K1 [1] = target: T1, CL-K1 (Homo sapiens, UniProt Q9BWP8); assay: Glycan-array screen with fluorophore-labelled CL-K1; format: binding; parameters: For full-length protein, the cDNA was cloned into the polylinker region of expression vector pED; made in house; host or cells: Chinese hamster ovary cells; details: for glycan-array binding by CL-K1 / relative fluorescence, With Ca^2+: with Ca2+; for relative fluorescence, With Ca^2+ / relative fluorescence, Without Ca^2+: glycan array, ± SE from six replicates; for relative fluorescence, With Ca^2+: CL-K1 200 μg/ml; for relative fluorescence, Without Ca^2+: without Ca2+
Excerpt: To examine binding to individual glycans, fluorophore-labelled CL-K1 was used to probe a broad screen of mammalian carbohydrates using the Core H Glycan array technology facility at The Consortium for Functional Glycomics. […] The relative fluorescence signal provides an accurate indication of the order of affinities. Consistent with the glycoprotein data, the best ligands were all high-mannose oligosaccharides (Figure 2A and Additional file 1), but not all of these were recognised. Mammalian high-mannose structures comprise a Man5 core attached to the protein via two GlcNAc residues, with α1-2 linked sugars at the non-reducing termini (Figure 2C). CL-K1 only recognised those structures containing at least one terminal Man(α1-2)Man epitope. For example, it bound tightly to Man6, Man7, Man8 and Man9 but not to the Man5 core (ligand 310) that comprises only α1-3 and α1-6 linkages. […] This pattern of recognition is different from other collectins, such as MBL and pulmonary-surfactant protein D that typically recognise the terminal sugar alone (mannose, fucose or N-acetyglucosamine). It is also different from other C-type lectins, such as DC-SIGN or DC-SIGNR that target larger high-mannose oligosaccharides preferentially (Man5 to Man9). To quantify the differences in affinities, we compared binding to three different epitopes that all form part of a high-mannose oligosaccharide. […] Thus, CL-K1 primarily recognises the terminal disaccharide of the glycan, rather than the terminal sugar alone, explaining its unusual binding properties.
Labelled protein (70 μL) was applied to the printed surface of the microarray chip coated with natural and synthetic glycans via amino linkers. The chip was covered and incubated at room temperature in a humidified chamber for one hour. Binding was detected by measuring the fluorescence associated with each glycan. Data are the average of six replicates.
Target sequence in this assay (Q9BWP8 26-271): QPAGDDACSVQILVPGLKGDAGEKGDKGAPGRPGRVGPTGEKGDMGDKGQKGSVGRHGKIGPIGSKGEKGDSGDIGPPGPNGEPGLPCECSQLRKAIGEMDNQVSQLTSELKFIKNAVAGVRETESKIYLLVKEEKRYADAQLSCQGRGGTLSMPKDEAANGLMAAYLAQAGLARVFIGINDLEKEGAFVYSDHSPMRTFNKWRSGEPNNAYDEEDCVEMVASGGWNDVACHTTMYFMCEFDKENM

CL-K1 [2] = target: T1, CL-K1; assay: Surface plasmon resonance of CL-K1 binding to glycoproteins; parameters: For full-length protein, the cDNA was cloned into the polylinker region of expression vector pED; made in house; host or cells: Chinese hamster ovary cells; details: glycoprotein starting concentration 200 nM
Method: (§1) Figure 1 Glycoprotein binding and complement activation by CL-K1. A) Immunoblot of CL-K1 binding to immobilised mammalian and yeast glycoproteins. B) Surface plasmon resonance of CL-K1 binding to glycoproteins. […] C3b and its breakdown products were detected by absorbance using an anti-human C3c antibody with alkaline phosphatase-conjugated goat anti-rabbit secondary antibody and p-nitrophenyl phosphate as the substrate. Protein concentrations were calculated based on the molecular masses of CL-K1 and MBL trimers (78 kDa in each case). CL-K1, collectin-K1; MBL, mannan-binding lectin.
CL-K1 was immobilised on the surface of a GLM sensor chip (Bio-Rad Laboratories Ltd (Hemel Hempstead, UK)) by amine coupling. Binding was measured in 10 mM Tris–HCl, pH 7.4 containing 140 mM NaCl, 2 mM CaCl2 and 0.005% Tween 20 at a flow rate of 25 μl/minute and at 25°C. The protein surface was regenerated in buffer containing 1 M NaCl and 5 mM EDTA.
Target sequence in this assay (Q9BWP8 26-271): as above

CL-K1 [3] = target: T1, CL-K1; assay: Immunoblot of CL-K1 binding to immobilised glycoproteins; parameters: For full-length protein, the cDNA was cloned into the polylinker region of expression vector pED; made in house; host or cells: Chinese hamster ovary cells; details: biotinylated CL-K1 0.06 mg/ml, glycoproteins spotted on nitrocellulose
Method: as §1
Target sequence in this assay (Q9BWP8 26-271): as above
Two-fold serial dilutions of glycoprotein (0.5 μl at a starting concentration of 2 mg/ml) were spotted on to a nitrocellulose membrane and allowed to dry for 30 minutes at room temperature. […] After washing, the membrane was incubated with Streptavidin-ALP conjugate (2ug/ml; Life Technologies Ltd (Paisley, UK)) and developed with BCIP-NBT substrate (Sigma).

CL-K1 [4] = target: T1, CL-K1; assay: Inhibition of CL-K1 binding to immobilized yeast invertase by high-mannose epitopes; parameters: For full-length protein, the cDNA was cloned into the polylinker region of expression vector pED; made in house; host or cells: Chinese hamster ovary cells; details: relative to Man(α1-2)Man IC50 of 0.02 mM
Target sequence in this assay (Q9BWP8 26-271): as above

CL-K1 [5] = target: T1, CL-K1; assay: Proteolysis of CL-K1 by trypsin at increasing Ca2+ concentrations; format: binding; parameters: made in house; details: trypsin 0.5% (w/w), read-out: apparent KD for calcium
Method: (§2) Figure 4 Ca^2+ stabilises the CRDs of CL-K1. A) Fluorescence spectra of the CL-K1 fragment in different buffers. The λex was 280 nm. B) Ca^2+ binding to the CL-K1 fragment measured by fluorescence. […] C) Urea denaturation in the presence and absence of Ca^2+ (2 mM). […] Samples were separated by SDS-PAGE and gels were scanned to determine the amount of CL-K1 remaining. The amount of trypsin was 0.5% (w/w). The intensities of bands corresponding to the neck and CRD and the CRD alone were combined. A sample gel is shown in F). E) Proteolysis of CL-K1 in the presence and absence of Ca^2+. Two fold serial dilutions of trypsin were used at a starting concentration of 2% (w/w). In all experiments data are mean ± error from two separate experiments. CL-K1, collectin-K1; CRD, carbohydrate-recognition domain.
Target sequence in this assay (Q9BWP8 116-271): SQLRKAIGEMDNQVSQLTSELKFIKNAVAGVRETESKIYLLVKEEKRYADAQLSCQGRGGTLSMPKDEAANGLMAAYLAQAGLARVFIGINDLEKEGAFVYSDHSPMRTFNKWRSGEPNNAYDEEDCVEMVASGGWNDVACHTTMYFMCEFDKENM

CL-K1 fragment = target: T2, CL-K1 fragment (Homo sapiens, UniProt Q9BWP8); assay: Ca2+ binding to the CL-K1 fragment measured by intrinsic fluorescence
T2 construct: made in house
T2 sequence (Q9BWP8 116-271): as above
Method: as §2
All experiments were carried out using a Fluoromax-4 (Horiba Jobin Yvon, Horiba UK Ltd (Middlesex, UK)) instrument with excitation wavelength at 280 nm, slit widths of 2 nm and emission wavelength range of 300 to 400 nm. The λex was 280 nm. Protein samples (0.5 μM) in 10 mM Tris–HCl, pH 7.4 containing 140 mM NaCl were measured in the presence of 2 mM CaCl2, 1 mM EDTA and 6 M urea.

[6] = test system: Chinese hamster ovary cells; assay: Secretion of wild type and variant CL-K1s from mammalian cells (immunoblot of medium); format: cell-based; details: transfected CHO cells, serum-free medium, anti-CL-K1 immunoblot
Excerpt: Figure 5 No secretion of variant CL-K1s containing mutations associated with 3MC syndrome. A) Structure of the CRD of CL-K1 showing the position of mutations associated with 3MC syndrome. Secondary structure features are labelled based on the structure of MBL [38]. Polar interactions are indicated by dotted lines. B) Secretion of wild type and variant CL-K1s from mammalian cells. […] Secreted CL-K1 was detected using rabbit polyclonal anti-CL-K1 antibodies. Purified wild-type CL-K1 (approximately 20 ng) was used as a positive control. CL-K1, collectin-K1; CRD, carbohydrate-recognition domain; MBL, mannan-bindng lectin; 3MC, Carnevale, Mingarelli, Malpuech and Michels.
For full-length protein, the cDNA was cloned into the polylinker region of expression vector pED [29] and protein was produced in Chinese hamster ovary cells and purified by affinity chromatography on mannose-Sepharose columns as described previously for MBL [28, 30]. […] Cells were grown in Power Prime broth (Molecular Dimensions Limited (Newmarket, UK)), induced during mid-log phase with IPTG (1 mM), and harvested after growth at 37°C for an additional 16 hours.

yeast invertase = assay: Binding of biotinylated invertase to full length CL-K1 and trimeric fragments; details: plates coated with CL-K1 protein
Excerpt: Figure 6 Characterisation of CL-K1 fragments containing disease-associated mutations. […] The elution positions of conalbumin (75 kDa), ovalbumin (44 kDa) and ribonuclease A (13.7 kDa) are indicated. […] Bottom, None of the three CL-K1 variants interacts with the column, even in the presence of Ca^2+. B) CD spectra of the wild-type CL-K1 fragment and the disease-associated CL-K1 variants. […] Values are the mean ± error from duplicate measurements. Tighter binding of the full-length protein is due to its increased avidity. CL-K1, collectin-K1; EDTA, ethylenediaminetetraacetic acid.
After washing, wells were incubated with 1:2000 dilution of goat peroxidase conjugated anti-biotin antibody (Sigma) and developed with tetramethylbenzidine (Sigma). Absorbance was measured at 450 nm.

complement component C3b = assay: Complement activation: C3b deposition on mannan in lectin-depleted human serum; format: biochemical; details: 1/100 human serum depleted of endogenous lectins
Method: as §1
After incubation at 37°C for one hour and washes with buffer containing 0.5% Tween-20, C3b was detected using rabbit anti-human C3c antibody (Dako UK Ltd (Ely, UK)) with alkaline phosphatase-conjugated goat anti-rabbit secondary antibody (Sigma) and p-nitrophenyl phosphate as the substrate.

| Compound | relative fluorescence, With Ca^2+ (CL-K1 [1]) | relative fluorescence, Without Ca^2+ (CL-K1 [1]) | further results |
| --- | --- | --- | --- |
| NCCCCCO[C@H]1O[C@H](CO[C@H]2O[C@H](CO[C@H]3O[C@H](CO)[C@@H](O)[C@H](O)[C@@H]3O[C@H]3O[C@H](CO)[C@@H](O)[C@H](O)[C@@H]3O)[C@@H](O)[C@H](O[C@H]3O[C@H](CO)[C@@H](O)[C@H](O)[C@@H]3O[C@H]3O[C@H](CO)[C@@H](O)[C@H](O)[C@@H]3O)[C@@H]2O)[C@@H](O)[C@H](O[C@H]2O[C@H](CO)[C@@H](O)[C@H](O)[C@@H]2O[C@H]2O[C@H](CO)[C@@H](O)[C@H](O)[C@@H]2O[C@H]2O[C@H](CO)[C@@H](O)[C@H](O)[C@@H]2O)[C@@H]1O [ligand 312, Manα1-2Manα1-2Manα1-3(Manα1-2Manα1-6(Manα1-2Manα1-3)Manα1-6)Manα-Sp9] | – | – | glycan-array binding by CL-K1 (CL-K1 [1]): bound tightly |
| OC[C@H]1O[C@H](O)[C@H](O)[C@@H](O)[C@H]1O [compound 6] | 294 ± 167 | 870 ± 157 | – |
| OC[C@H]1O[C@H](O)[C@@H](O)[C@@H](O)[C@@H]1O [compound 8] | 566 ± 230 | 1156 ± 233 | – |
| Invertase: yeast invertase glycoprotein from Sigma-Aldrich | – | – | binding to CL-K1 by surface plasmon resonance (CL-K1 [2]): bound tightly; binding of CL-K1 on blot (CL-K1 [3]): binding |
| CC1OC(O)C(O)C(O)C1O (stereo not shown) [compound 10] | 431 ± 27 | 1097 ± 138 | – |
| OC[C@H]1O[C@H](O)[C@H](O)[C@@H](O)[C@@H]1O [compound 7] | 250 ± 80 | 952 ± 297 | – |
| Mannan | – | – | binding to CL-K1 by surface plasmon resonance (CL-K1 [2]): bound tightly; binding of CL-K1 on blot (CL-K1 [3]): binding |
| OC[C@H]1OC(O)[C@@H](O)[C@@H](O)[C@@H]1O (stereo partly shown) [mannose] | – | – | fold by which inhibition by Man(α1-2)Man is greater than for this ligand (CL-K1 [4]): > 300 fold |
| thyroglobulin: Bovine thyroglobulin from GE Healthcare | – | – | binding of CL-K1 on blot (CL-K1 [3]): binding |
| OC[C@H]1O[C@@H](O)[C@H](O)[C@@H](O)[C@H]1O [compound 16] | 941 ± 308 | 4062 ± 774 | – |
| CC1OC(O)C(O)C(O)C1O (stereo not shown) [compound 11] | 546 ± 98 | 1922 ± 358 | – |
| OC[C@H]1O[C@@H](O)[C@@H](O)[C@@H](O)[C@@H]1O [compound 18] | 99 ± 9 | 570 ± 170 | – |
| [Ca+2] [Ca^2+] | – | – | Kd (CL-K1 [5]): ~1000 µM; Kd (CL-K1 fragment; read-out: KD for Ca2+ by titration): 430 µM; Hill coefficient of Ca2+ binding (CL-K1 fragment; trimeric neck+CRD fragment, intrinsic fluorescence): 2.4 |
| CL-K1: full-length recombinant human collectin-K1 produced in Chinese hamster ovary cells | – | – | secretion into medium [6]: secreted; binding to yeast invertase (yeast invertase): bound; complement activation, fold lower activity than human MBL (complement component C3b): 2.5 fold |
| fetuin: Bovine fetuin from Sigma-Aldrich | – | – | binding of CL-K1 on blot (CL-K1 [3]): not |
| OC[C@H]1O[C@@H](O)[C@H](O)[C@@H](O)[C@@H]1O [compound 17] | 831 ± 505 | 4473 ± 1785 | – |

Further lines, with some results ahead:

| relative fluorescence, With Ca^2+ (CL-K1 [1]) | relative fluorescence, Without Ca^2+ (CL-K1 [1]) | Compound | further results |
| --- | --- | --- | --- |
| 170 ± 91 | 535 ± 116 | CC(=O)N[C@@H]1[C@@H](O)[C@H](O)[C@@H](CO)O[C@H]1O [compound 20] | – |
| 1000 ± 468 | 768 ± 303 | OCC1OC(OCC2OC(OCC3OC(O)C(O)C(OC4OC(CO)C(O)C(O)C4O)C3O)C(O)C(OC3OC(CO)C(O)C(O)C3O)C2O)C(O)C(O)C1O (stereo not shown) [compound 310] | glycan-array binding by CL-K1 (CL-K1 [1]): not |
| 499 ± 293 | 1798 ± 141 | CC(=O)N[C@@H]1[C@@H](O)[C@H](O)[C@@H](CO)O[C@H]1O [compound 21] | – |
